# From patent US20250345350A1, “TREATING PAIN ASSOCIATED WITH CENTRAL SENSITIZATION” (Medicon Pharmaceuticals, Inc., priority 2022, published 2025)
# How the values were obtained:
# [1] = tested on: paclitaxel-induced pain associated with central sensitization in C57BL/6J mice; assay: Mechanical allodynia (von Frey), paclitaxel-induced pain, topical PS 8% (Example 2); format: in vivo, mouse
# From the text: Food and water were available ad libitum.
# Paw withdrawn, licking or shaking were considered positive responses.
# [2] = Safety of PS ointment applied to hind paws of mice; format: in vivo, mouse; conditions: PS ointment thrice daily to the hind paws of mice for up to 22 days
# From the text: This finding is in keeping with the known safety profile of PS.
# [3] = tested on: chronic constriction injury-induced peripheral neuropathy in C57BL/6J mice; assay: Thermal allodynia PWL, chronic constriction injury model of PTPN, topical (Example 7); format: in vivo, mouse; conditions: PS 5% topical
# [4] = Preliminary in vivo evidence, PS to the ocular surface, corneal neuropathic pain (Example 22); conditions: topical PS to the ocular surface
# [5] = tested on: paclitaxel-induced central sensitization in C57/BL mice; assay: Paw withdrawal threshold (von Frey), paclitaxel model, topical PS (Example 1); conditions: day 10, about 30 min after last application; PS 8% hydrogel topically to both hind paws 3 times a day for 10 days
# Method: The paclitaxel was administered into all study groups once a day for 3 days.
# The first doses were administered 2 days after the last administration of paclitaxel.
# The study groups were as follows: • 1. Group 1: paclitaxel only (n=9) • 2. Group 2: paclitaxel plus vehicle (n=10) • 3.
# In order to determine the outcome of the treatment, pain threshold responses were measured using the well-established method of von Frey filaments. […] The results of the PWT test are expressed as force applied (gm). […] The data is expressed as percent change from the respective baseline value.
# [6] = tested on: chronic constriction injury-induced peripheral neuropathy in C57BL/6J mice; assay: PWT (von Frey), chronic constriction injury model of PTPN, topical (Example 7); conditions: day 14; PS 5% gel or sulindac 0.7% gel on left paw three times a day for 14 days; pregabalin once by oral gavage 1 h before
# Method: Group 1: ligation only (i.e, surgical control with no treatment, n=5-7) • 2. Group 2: vehicle control (n=5-7) • 3. […] Group 4: 0.7% sulindac (n=5-7) • 5.
# Briefly, for determining mechanical allodynia, pain threshold responses were measured using the well-established method of von Frey filaments in line with that performed in the earlier Examples. The PWT test was performed on day 14. The mechanical threshold, expressed as g, indicates the force of the von Frey filament to which the animal reacted.
smiles,measurement,setting,value
"CCOP(=O)(OCC)OCCCCOC(=O)CC1=C(C)/C(=C/c2ccc([S+](C)[O-])cc2)c2ccc(F)cc21 (centres unmarked) [PS, phosphosulindac]","mechanical allodynia score, mean±SEM","[1]; day 0 (initiation of treatment), paclitaxel-induced pain",0.79 ± 0.08 g
same,"mechanical allodynia score, mean±SEM","[1]; day 5, PS 8% ointment 3x/day to hind paws",1.17 ± 0.07 g
same,"mechanical allodynia score, mean±SEM","[1]; day 16, PS 8% ointment 3x/day to hind paws",2.49 ± 0.18 g
same,topical or systemic side effects,[2],no topical or systemic side effects
same,"PWL, sec Mean ± SEM",[3],9.1 ± 2.9 s
same,analgesic effect on corneal neuropathic pain,[4],striking analgesic effect
same,"PWT, % baseline Mean ± SEM",[5],102.55 ± 4.92 % baseline
same,"PWT, g Mean ± SEM",[6],1.30 ± 0.15 g
